# Data reported in patent US12491187B2, “Use of MCT1 inhibitors to enhance insulin sensitivity” (H. LEE MOFFIT CANCER CENTER AND RESEARCH INSTITUTE, INC., priority 2022, dated 2025).
# Test system: differentiated 3T3-L1 (WT) cells
# Experiment: Glucose uptake (Glucose Uptake-Glo) in WT adipocytes
# Type: cell-based, murine
# Conditions: RO-3306 (10 μM) co-treated with AZD3965 (1 μM)
# Protocol: Glucose Uptake: 3T3-L1 cells were seeded and differentiated in clear bottom 96-well plates (Corning®). After differentiation, cells were treated with or without […] AZD3965 for 24 hr, 48 hr or 72 hr as illustrated in FIG. 7 (schematic outline of experimental procedure). The cells were incubated in serum free media the night before performing the assay. The following day/morning, media was changed to serum and glucose free media for 2 hr prior to the experiment. Cells were then stimulated with 175 nM Insulin or vehicle (PBS) for 30 minutes. Glucose Uptake was measured using the Glucose Uptake-Glo™ Assay (Promega®) according to the manufacturer's protocol. The data generated were normalized by dividing the relative luminescence units (RLU) measured in insulin stimulated wells by vehicle treated controls. The aforementioned experiment was repeated in the presence of the CDK1 inhibitor, RO-3306 (10 μM), where indicated (FIG. 5C).
structure (smiles),measurement,value
O=C1NC(=NCc2cccs2)S/C1=C\c1ccc2ncccc2c1 [RO-3306],insulin-stimulated glucose uptake under co-treatment,the effects of AZD3965 were attenuated
